Laboratory results taken from PMC8550792, “Evolution of kinase polypharmacology across HSP90 drug discovery” (Cell Chemical Biology, 2021).
Where two headings read alike, the source gives them in different places.

How the values were obtained:
Assay in all cases: biochemical
Format in all cases: biochemical
382 unique human kinases [1] = molecular target: T1, 382 unique human kinases (Homo sapiens, UniProt P20794); conditions: kinase MAK, compound 10 uM; for remaining activity at 10 µM: read-out: % Enzyme Activity (relative to DMSO controls)
T1 construct: purchased Reaction Biology (HotSpot contract assay)
T1 sequence (P20794 1-623): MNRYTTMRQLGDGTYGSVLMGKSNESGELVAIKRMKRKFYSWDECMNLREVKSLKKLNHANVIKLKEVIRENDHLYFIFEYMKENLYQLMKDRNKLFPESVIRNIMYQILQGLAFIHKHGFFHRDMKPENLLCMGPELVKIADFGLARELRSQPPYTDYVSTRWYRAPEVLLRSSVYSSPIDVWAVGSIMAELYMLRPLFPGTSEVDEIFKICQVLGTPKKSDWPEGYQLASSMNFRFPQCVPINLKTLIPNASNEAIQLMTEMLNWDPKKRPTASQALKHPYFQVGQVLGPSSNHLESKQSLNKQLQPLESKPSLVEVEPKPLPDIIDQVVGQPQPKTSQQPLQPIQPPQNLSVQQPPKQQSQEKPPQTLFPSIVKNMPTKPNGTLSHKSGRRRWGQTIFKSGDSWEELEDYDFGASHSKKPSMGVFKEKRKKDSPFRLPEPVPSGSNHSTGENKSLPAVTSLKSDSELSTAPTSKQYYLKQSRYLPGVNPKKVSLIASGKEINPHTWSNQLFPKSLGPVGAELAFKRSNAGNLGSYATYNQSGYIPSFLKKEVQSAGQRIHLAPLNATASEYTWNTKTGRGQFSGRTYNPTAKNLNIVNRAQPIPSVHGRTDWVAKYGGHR

382 unique human kinases [2] = molecular target: T2, 382 unique human kinases (Homo sapiens, UniProt P51817); conditions: PRKX, compound at 10 uM, duplicate values; for remaining activity at 10 µM: read-out: % Enzyme Activity (relative to DMSO controls)
T2 construct: purchased Reaction Biology (HotSpot contract assay)
T2 sequence (P51817 1-358): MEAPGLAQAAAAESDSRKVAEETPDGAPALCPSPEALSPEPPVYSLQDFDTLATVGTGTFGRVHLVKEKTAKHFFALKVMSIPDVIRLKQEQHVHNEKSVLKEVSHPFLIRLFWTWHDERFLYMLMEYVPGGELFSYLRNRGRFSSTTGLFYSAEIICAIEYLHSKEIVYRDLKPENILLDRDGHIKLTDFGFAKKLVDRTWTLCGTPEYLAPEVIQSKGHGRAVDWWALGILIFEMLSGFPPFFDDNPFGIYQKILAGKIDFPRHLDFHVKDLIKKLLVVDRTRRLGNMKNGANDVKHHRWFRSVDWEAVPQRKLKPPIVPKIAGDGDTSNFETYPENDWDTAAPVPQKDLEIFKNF

382 unique human kinases [3] = molecular target: T3, 382 unique human kinases (Homo sapiens, UniProt Q16566); conditions: kinase CAMK4, compound 10 uM; for remaining activity at 10 µM: read-out: % Enzyme Activity (relative to DMSO controls)
T3 construct: purchased Reaction Biology (HotSpot contract assay)
T3 sequence (Q16566 1-473): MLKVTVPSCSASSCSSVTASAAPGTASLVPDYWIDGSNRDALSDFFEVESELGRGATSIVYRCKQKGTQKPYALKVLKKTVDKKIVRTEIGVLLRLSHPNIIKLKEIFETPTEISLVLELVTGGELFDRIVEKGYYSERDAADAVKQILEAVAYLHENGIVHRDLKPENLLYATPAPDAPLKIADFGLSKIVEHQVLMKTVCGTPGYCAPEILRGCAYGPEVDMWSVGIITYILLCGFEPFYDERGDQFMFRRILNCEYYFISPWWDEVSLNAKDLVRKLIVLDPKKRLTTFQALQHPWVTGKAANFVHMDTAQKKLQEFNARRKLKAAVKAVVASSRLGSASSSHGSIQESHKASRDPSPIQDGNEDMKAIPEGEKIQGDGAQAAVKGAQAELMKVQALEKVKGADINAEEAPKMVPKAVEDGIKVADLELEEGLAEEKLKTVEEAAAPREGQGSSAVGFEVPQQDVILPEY

382 unique human kinases [4] = molecular target: T4, 382 unique human kinases (Homo sapiens, UniProt Q13233); conditions: kinase MEKK1, compound 10 uM; for remaining activity at 10 µM: read-out: % Enzyme Activity (relative to DMSO controls)
T4 construct: purchased Reaction Biology (HotSpot contract assay)

382 unique human kinases [5] = molecular target: T5, 382 unique human kinases (Homo sapiens, UniProt Q86Y07); conditions: kinase VRK2, compound 10 uM; for remaining activity at 10 µM: read-out: % Enzyme Activity (relative to DMSO controls)
T5 construct: purchased Reaction Biology (HotSpot contract assay)
T5 sequence (Q86Y07 whole entry): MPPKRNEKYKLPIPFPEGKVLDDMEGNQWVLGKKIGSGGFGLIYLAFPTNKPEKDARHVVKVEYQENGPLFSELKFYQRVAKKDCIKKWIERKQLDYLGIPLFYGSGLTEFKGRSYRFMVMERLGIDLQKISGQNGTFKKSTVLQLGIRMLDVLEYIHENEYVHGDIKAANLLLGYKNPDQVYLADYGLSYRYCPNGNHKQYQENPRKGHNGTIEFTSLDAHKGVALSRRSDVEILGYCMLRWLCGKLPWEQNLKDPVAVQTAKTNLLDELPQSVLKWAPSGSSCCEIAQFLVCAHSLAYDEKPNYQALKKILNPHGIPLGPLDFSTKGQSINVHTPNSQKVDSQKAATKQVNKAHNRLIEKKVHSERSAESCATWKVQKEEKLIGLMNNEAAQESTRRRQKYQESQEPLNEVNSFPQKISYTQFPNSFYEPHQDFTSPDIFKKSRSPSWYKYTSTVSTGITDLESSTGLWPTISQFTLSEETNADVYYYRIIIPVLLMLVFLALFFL

382 unique human kinases [6] = molecular target: T6, 382 unique human kinases (Homo sapiens, UniProt Q06187, E41K); conditions: BTK (E41K), 10 uM; for remaining activity at 10 µM: read-out: % Enzyme Activity (relative to DMSO controls)
T6 construct: purchased Reaction Biology (HotSpot contract assay)
T6 sequence (Q06187 whole entry E41K): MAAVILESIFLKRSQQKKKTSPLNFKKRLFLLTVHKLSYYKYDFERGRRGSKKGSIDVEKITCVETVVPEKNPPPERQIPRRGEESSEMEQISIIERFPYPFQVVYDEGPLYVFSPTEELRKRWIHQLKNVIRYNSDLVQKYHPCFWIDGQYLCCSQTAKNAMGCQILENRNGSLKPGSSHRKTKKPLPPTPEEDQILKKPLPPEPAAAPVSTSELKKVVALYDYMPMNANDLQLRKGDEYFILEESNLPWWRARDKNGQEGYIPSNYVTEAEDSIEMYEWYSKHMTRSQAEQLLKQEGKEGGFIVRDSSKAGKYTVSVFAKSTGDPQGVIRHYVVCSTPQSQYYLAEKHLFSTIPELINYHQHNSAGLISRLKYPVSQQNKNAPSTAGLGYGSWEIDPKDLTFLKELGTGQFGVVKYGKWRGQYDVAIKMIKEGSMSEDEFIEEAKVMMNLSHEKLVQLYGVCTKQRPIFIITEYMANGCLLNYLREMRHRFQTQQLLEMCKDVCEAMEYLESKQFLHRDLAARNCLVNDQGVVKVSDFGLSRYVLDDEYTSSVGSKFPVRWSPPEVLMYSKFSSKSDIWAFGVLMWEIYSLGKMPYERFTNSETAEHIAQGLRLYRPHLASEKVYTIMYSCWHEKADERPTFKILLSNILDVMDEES

382 unique human kinases [7] = molecular target: T7, 382 unique human kinases (Homo sapiens, UniProt P00519, T315I); conditions: ABL1 (T315I), 10 uM; for remaining activity at 10 µM: read-out: % Enzyme Activity (relative to DMSO controls)
T7 construct: purchased Reaction Biology (HotSpot contract assay)

382 unique human kinases [8] = molecular target: T8, 382 unique human kinases (Homo sapiens, UniProt P06493); conditions: for remaining activity at 10 µM: read-out: % Enzyme Activity (relative to DMSO controls)
T8 construct: purchased Reaction Biology (HotSpot contract assay)
T8 sequence (P06493 whole entry): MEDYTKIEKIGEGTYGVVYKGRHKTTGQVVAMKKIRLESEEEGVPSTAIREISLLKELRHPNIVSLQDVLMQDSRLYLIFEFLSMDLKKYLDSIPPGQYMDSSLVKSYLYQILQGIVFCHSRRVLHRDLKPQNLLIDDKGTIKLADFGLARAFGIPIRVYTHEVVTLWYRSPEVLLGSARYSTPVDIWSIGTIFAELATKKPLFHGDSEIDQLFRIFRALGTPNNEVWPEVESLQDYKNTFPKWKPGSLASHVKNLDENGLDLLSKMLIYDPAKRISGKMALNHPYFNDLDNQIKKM

382 unique human kinases [9] = molecular target: T9, 382 unique human kinases (Homo sapiens, UniProt P51617); conditions: kinase IRAK1, compound 10 uM; for remaining activity at 10 µM: read-out: % Enzyme Activity (relative to DMSO controls)
T9 construct: purchased Reaction Biology (HotSpot contract assay)
T9 sequence (P51617 whole entry): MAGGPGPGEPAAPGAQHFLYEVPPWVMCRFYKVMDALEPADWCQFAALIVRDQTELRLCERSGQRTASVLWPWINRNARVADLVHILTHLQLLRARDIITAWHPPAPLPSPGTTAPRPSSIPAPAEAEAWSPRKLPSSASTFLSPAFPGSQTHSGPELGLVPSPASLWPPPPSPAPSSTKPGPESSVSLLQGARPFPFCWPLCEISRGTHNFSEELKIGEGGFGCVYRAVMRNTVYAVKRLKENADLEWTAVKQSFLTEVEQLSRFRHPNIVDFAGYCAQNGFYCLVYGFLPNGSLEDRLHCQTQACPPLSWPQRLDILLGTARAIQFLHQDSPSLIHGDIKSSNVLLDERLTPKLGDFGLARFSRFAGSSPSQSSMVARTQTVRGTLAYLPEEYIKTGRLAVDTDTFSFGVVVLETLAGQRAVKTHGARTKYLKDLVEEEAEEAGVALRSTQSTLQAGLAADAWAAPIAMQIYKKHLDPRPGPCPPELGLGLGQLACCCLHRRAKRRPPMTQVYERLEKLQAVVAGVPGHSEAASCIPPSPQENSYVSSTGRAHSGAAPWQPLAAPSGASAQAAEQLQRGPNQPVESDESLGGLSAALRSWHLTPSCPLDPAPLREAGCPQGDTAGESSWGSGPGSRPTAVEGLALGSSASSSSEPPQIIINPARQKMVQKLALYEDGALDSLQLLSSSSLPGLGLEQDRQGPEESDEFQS

382 unique human kinases [10] = molecular target: T10, 382 unique human kinases (Homo sapiens, UniProt P09769); conditions: FGR, [ATP] 50 µM
T10 construct: purchased Reaction Biology (HotSpot contract assay)
T10 sequence (P09769 whole entry): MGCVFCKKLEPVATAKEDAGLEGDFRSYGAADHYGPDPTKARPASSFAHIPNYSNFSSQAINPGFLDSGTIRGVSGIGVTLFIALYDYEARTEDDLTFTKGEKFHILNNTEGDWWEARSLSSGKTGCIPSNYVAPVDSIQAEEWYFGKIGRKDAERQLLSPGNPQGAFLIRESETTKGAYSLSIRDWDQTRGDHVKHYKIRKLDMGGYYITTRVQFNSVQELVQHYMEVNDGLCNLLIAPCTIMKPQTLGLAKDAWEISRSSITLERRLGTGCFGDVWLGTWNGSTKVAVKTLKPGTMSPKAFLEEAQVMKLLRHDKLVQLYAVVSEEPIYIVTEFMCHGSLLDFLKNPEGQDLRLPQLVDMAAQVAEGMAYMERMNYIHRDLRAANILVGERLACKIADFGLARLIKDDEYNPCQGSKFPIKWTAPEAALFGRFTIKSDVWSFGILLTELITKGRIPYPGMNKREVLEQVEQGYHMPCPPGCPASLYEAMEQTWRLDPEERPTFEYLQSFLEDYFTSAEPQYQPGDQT

382 unique human kinases [11] = molecular target: T11, 382 unique human kinases (Homo sapiens, UniProt Q14680, T460M); conditions: MELK (T460M), [ATP] 20 µM, compound 10 uM; for remaining activity at 10 µM: read-out: % Enzyme Activity (relative to DMSO controls)
T11 construct: purchased Reaction Biology (HotSpot contract assay)
T11 sequence (Q14680 whole entry T460M): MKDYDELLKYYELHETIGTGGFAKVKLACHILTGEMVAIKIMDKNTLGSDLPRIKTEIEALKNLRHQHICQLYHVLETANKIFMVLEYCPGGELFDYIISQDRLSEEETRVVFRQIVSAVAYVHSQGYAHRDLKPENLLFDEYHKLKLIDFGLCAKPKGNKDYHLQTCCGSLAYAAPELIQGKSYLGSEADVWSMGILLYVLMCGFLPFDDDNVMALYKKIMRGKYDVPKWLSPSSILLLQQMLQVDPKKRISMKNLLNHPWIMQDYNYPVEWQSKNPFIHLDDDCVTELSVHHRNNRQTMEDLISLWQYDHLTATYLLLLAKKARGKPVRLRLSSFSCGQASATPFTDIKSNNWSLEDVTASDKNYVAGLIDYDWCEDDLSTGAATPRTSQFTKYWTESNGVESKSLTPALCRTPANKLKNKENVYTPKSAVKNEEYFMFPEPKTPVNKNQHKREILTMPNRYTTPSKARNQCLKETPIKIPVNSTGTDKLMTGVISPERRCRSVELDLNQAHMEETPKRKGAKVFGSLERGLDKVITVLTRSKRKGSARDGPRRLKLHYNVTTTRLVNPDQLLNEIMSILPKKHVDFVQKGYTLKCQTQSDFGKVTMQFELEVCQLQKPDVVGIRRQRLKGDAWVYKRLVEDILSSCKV

382 unique human kinases [12] = molecular target: T12, 382 unique human kinases (Homo sapiens, UniProt O15075); conditions: DCAMKL1, 10 uM; for remaining activity at 10 µM: read-out: % Enzyme Activity (relative to DMSO controls)
T12 construct: purchased Reaction Biology (HotSpot contract assay)
T12 sequence (O15075 whole entry): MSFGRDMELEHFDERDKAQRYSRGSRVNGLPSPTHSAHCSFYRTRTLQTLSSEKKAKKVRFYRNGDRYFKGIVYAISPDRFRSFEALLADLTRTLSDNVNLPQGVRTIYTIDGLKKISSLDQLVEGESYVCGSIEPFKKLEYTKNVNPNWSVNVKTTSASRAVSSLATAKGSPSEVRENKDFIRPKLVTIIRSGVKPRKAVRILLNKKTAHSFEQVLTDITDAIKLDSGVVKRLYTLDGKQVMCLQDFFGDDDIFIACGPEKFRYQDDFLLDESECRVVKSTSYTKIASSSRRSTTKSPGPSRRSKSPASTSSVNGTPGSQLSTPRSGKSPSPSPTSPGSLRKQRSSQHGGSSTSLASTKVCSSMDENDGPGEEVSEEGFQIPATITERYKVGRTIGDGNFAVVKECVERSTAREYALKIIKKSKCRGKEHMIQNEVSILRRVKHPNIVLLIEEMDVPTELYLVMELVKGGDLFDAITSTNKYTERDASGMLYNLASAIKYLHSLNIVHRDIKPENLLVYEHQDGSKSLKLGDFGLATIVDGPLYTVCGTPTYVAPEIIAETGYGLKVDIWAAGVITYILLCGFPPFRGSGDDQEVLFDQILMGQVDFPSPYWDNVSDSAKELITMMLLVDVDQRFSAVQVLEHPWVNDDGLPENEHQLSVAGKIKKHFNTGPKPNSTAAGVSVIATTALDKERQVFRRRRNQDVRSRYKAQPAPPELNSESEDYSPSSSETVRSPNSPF

382 unique human kinases [13] = molecular target: T13, 382 unique human kinases (Homo sapiens, UniProt O94921); conditions: CDK14/cyclin Y (PFTK1), 10 uM; for remaining activity at 10 µM: read-out: % Enzyme Activity (relative to DMSO controls)
T13 construct: purchased Reaction Biology (HotSpot contract assay)
T13 sequence (O94921 whole entry): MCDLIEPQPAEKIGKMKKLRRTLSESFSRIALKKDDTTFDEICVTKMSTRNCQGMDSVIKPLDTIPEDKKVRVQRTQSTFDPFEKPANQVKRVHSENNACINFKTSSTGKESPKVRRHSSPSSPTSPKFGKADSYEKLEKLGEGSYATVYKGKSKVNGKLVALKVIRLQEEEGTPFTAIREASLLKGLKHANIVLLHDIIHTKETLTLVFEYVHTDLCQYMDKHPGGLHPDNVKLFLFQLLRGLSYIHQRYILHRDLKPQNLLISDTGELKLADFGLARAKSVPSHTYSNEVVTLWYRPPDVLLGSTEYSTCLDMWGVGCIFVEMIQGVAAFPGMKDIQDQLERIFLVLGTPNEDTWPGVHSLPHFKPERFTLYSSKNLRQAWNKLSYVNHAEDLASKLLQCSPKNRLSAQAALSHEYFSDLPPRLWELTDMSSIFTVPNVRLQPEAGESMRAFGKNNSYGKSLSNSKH

[14] = kinase CDK1/cyclin A, compound 10 uM
[15] = kinase CDK1/cyclin E, compound 10 uM
[16] = compound 10 uM, read-out: % Enzyme Activity (relative to DMSO controls)

Compound | remaining activity at 10 µM (382 unique human kinases [1]) | remaining activity at 10 µM (382 unique human kinases [2]) | remaining activity at 10 µM (382 unique human kinases [3]) | remaining activity at 10 µM (382 unique human kinases [4]) | remaining activity at 10 µM (382 unique human kinases [5]) | remaining activity at 10 µM (382 unique human kinases [6]) | remaining activity at 10 µM (382 unique human kinases [7]) | remaining activity at 10 µM (382 unique human kinases [8]; CDK1/cyclin B, 10 uM) | remaining activity at 10 µM (382 unique human kinases [8]; [14]) | remaining activity at 10 µM (382 unique human kinases [8]; [15]) | remaining activity at 10 µM (382 unique human kinases [9]) | remaining activity at 10 µM (382 unique human kinases [10]; [16]) | remaining activity at 10 µM (382 unique human kinases [11]) | remaining activity at 10 µM (382 unique human kinases [12]) | remaining activity at 10 µM (382 unique human kinases [13]) | also measured
CC(C)c1cc(-c2n[nH]c(=O)n2-c2ccc3c(ccn3C)c2)c(O)cc1O [Ganetespib (STA9090)] | 86.4% | 108% | 91% | 98.3% | 91.2% | 65.4% | 72.8% | 78.5% | 83.4% | 81.7% | 102% |  |  |  |  | 
CC(C)c1cc(-c2n[nH]c(=O)n2-c2ccc3c(ccn3C)c2)c(O)cc1O [Ganetespib] |  |  |  |  |  |  |  |  |  |  |  | 14.4% | 43.6% | 113% | 93.1% | remaining activity at 1 µM (382 unique human kinases [10]; compound 1 uM, read-out: % Enzyme Activity (relative to DMSO controls)): 47.5%
CCNC(=O)c1noc(-c2cc(C(C)C)c(O)cc2O)c1-c1ccc(CN2CCOCC2)cc1 [Luminespib (AUY-922)] | 94.7% | 112% | 93.7% | 85.5% | 102% | 96.8% | 114% | 86.8% | 97.5% | 113% | 105% |  |  |  |  | % Enzyme Activity (relative to DMSO controls) (382 unique human kinases [1]): 94.57%; % Enzyme Activity (relative to DMSO controls) (382 unique human kinases [2]): 112.11%; % Enzyme Activity (relative to DMSO controls) (382 unique human kinases [3]): 90.30%; % Enzyme Activity (relative to DMSO controls) (382 unique human kinases [4]): 83.59%; % Enzyme Activity (relative to DMSO controls) (382 unique human kinases [5]): 100.26%; % Enzyme Activity (relative to DMSO controls) (382 unique human kinases [6]): 96.25%; % Enzyme Activity (relative to DMSO controls) (382 unique human kinases [7]): 112.00%; % Enzyme Activity (relative to DMSO controls) (382 unique human kinases [8]; CDK1/cyclin B, 10 uM): 86.64%; % Enzyme Activity (relative to DMSO controls) (382 unique human kinases [8]; [14]): 96.86%; % Enzyme Activity (relative to DMSO controls) (382 unique human kinases [8]; [15]): 108.79%; % Enzyme Activity (relative to DMSO controls) (382 unique human kinases [9]): 104.17%
CCNC(=O)c1noc(-c2cc(C(C)C)c(O)cc2O)c1-c1ccc(CN2CCOCC2)cc1 [Luminespib] |  |  |  |  |  |  |  |  |  |  |  | 34.1% | 74.9% | 96.9% | 103% | % Enzyme Activity (relative to DMSO controls) (382 unique human kinases [10]; compound 10 uM): 33.14%; % Enzyme Activity (relative to DMSO controls) (382 unique human kinases [11]): 72.49%; % Enzyme Activity (relative to DMSO controls) (382 unique human kinases [12]): 95.95%; % Enzyme Activity (relative to DMSO controls) (382 unique human kinases [13]): 102.69%
